Reference: US20070037882A1, “Remedy for cerebral neurodegenerative diseases using ppar agonist” (Astellas Pharma Inc., priority 2003, published 2007)

How the values were obtained:
[1] = tested on: murine MPTP Parkinson's model; experiment: Murine MPTP Parkinson's model, striate body DA and metabolites; type: in vivo, mice; settings: for DA content per wet weight of striate body / DOPAC content per wet weight of striate body / HVA content per wet weight of striate body / Resumption ratio of content of DA / Resumption ratio of content of DOPAC / Resumption ratio of content of HVA: MPTP +; for DA content per wet weight of striate body / DOPAC content per wet weight of striate body / HVA content per wet weight of striate body: 4 days after MPTP
[2] = tested on: SH-SY5Y cells; experiment: MPP+-induced cellular death model, apoptosis by caspase-3/7 assay; type: cell-based, human; settings: for suppression of caspase-3/7 activity (in words): SH-SY5Y, MPP+; for Caspase 3/7 activity: MPP+ + (3 mM), 3 h
Protocol: (§1) SH-SY5Y cells were spread on a 96-well plate (70,000 cell/well in 100 μl DMEM low glucose 10% fetal bovine serum) for overnight culturing, from which the culture medium was removed with an aspirator. Then, DMEM without serum was added at 50 μl/well. […] 2 hours later, DMEM without serum containing 18 mM MPP^+ was added at 20 μl/well. (MPP^+ to a final 3 mM concentration.) (For control, DMEM without serum alone was added.)
(§2) 3 hours later, the caspase-3/7 activity was assayed with Apo-One homogenous Caspase-3/7 assay kit (Promega).

[3] = tested on: SH-SY5Y cells; experiment: Thapsigargin-induced cellular death model, apoptosis by caspase-3/7 assay; type: cell-based, human; settings: for suppression of caspase-3/7 activity (in words): SH-SY5Y, thapsigargin; for Caspase 3/7 activity: thapsigargin + (100 nM), 3 h
[4] = tested on: SH-SY5Y cells; experiment: MPP+-induced cellular death model, viable cells by MTT assay; type: cell-based, human; settings: for suppression of MPP+-induced cellular death (in words): SH-SY5Y; for MTT assay A490: MPP+ + (3 mM), 24 h
Protocol: as §1, with “concentration)” for “concentration.)”, “(For a” for “(For”, “added).” for “added.)”
24 hours later, cell growth activity was assayed by measuring the absorbance at 490 nm, using Celltiter 96 aqueous one solution cell proliferation assay kit (Promega).
In the assay system, MPP^+ as an MPTP metabolite was added to a neuroblastoma SH-SY5Y, to inhibit the mitochondrial complex I to cause the generation of active oxygen and the inhibition of ATP synthesis, to induce cellular death. It is said that in the murine MPTP model commonly used as a model of Parkinson's disease, MPTP passing through the blood brain barrier is metabolized into MPP^+, which exerts toxicity specific to murine nigra cell to induce nerve detachment. Therefore, the assay system can be said as an in vitro assay system mimicking the murine MPTP model.

[5] = tested on: SH-SY5Y cells; experiment: Staurosporine-induced cellular death model, apoptosis by caspase-3/7 assay; type: cell-based, human; settings: for suppression of caspase-3/7 activity (in words): SH-SY5Y, staurosporine; for Caspase 3/7 activity: staurosporine + (150 nM), 3 h
Protocol: as §1, with “900 nM staurosporine” for “18 mM MPP^+”, “(Staurosporine” for “(MPP^+”, “150 nM concentration)” for “3 mM concentration.)”, “(For a” for “(For”, “added).” for “added.)”
as §2

[6] = tested on: SH-SY5Y cells; experiment: Staurosporine-induced cellular death model, viable cells by MTT assay; type: cell-based, human; settings: for suppression of staurosporine-induced cellular death (in words): SH-SY5Y; for MTT assay A490: staurosporine + (150 nM), 24 h
Protocol: Cellular death was induced by adding a protein kinase inhibitor staurosporine to a neuroblastoma SH-SY5Y to examine the effect of PPARδ agonists on the suppression of cellular death. SH-SY5Y cells were plated on a 96-well plate (70,000 cell/well in 100 μl DMEM low glucose 10% fetal bovine serum) for overnight culturing, from which the culture medium was removed with an aspirator. Then, DMEM without serum was added at 50 μl/well. […] 2 hours later, DMEM without serum containing 900 nM staurosporine was added at 20 μl/well. (Staurosporine to a final 150 nM concentration) (For a control, DMEM without serum alone was added.) 24 hours later, the viable cell count was calculated from the absorbance at 490 nm, using Celltiter 96 Aqueous one solution cell proliferation assay kit (Promega).

[7] = tested on: SH-SY5Y cells; experiment: Thapsigargin-induced cellular death model, dead cells by LDH assay; type: cell-based, human; settings: thapsigargin + (100 nM), 24 h, concentration not given
Protocol: SH-SY5Y cells were plated on a 96-well plate (70,000 cell/well in 100 μl DMEM low glucose 10% fetal bovine serum) for overnight culturing, from which the culture medium was removed with an aspirator. Then, DMEM without serum was added at 50 μl/well. […] 2 hours later, DMEM without serum containing 600 nM thapsigargin was added at 20 μl/well. (Thapsigargin to a final 100 nM concentration) (For a control, DMEM without serum alone was added.) 24 hours later, the absorbance at 490 nm was assayed with a cytotoxicity detection kit (Roche) to assay the LDH activity. […] An apparent correlation between the result of the viable cell count as determined by MTT assay in Example 1 and the LDH activity is shown. The above results clearly indicate that the PPARδ agonists are effective on the suppression of the thapsigargin-induced cellular death.

[8] = tested on: SH-SY5Y cells; experiment: MPP+-induced cellular death model, dead cells by LDH assay; type: cell-based, human; settings: for LDH release A490: MPP+ + (3 mM), 24 h; for cytotoxicity (in words): concentration of 100 μM, MPP+ model
Protocol: as §1, with “concentration)” for “concentration.)”, “(For a” for “(For”
24 hours later, the dead cell count was calculated on the basis of the LDH activity assayed with a cytotoxicity detection kit (Roche). […] The results reveal that the PPARδ agonists are effective on the suppression of MPP^+-induced cellular death.

[9] = 2nd '+' line (presumably 0.1 μM)
[10] = 4th '+' line (presumably 10 μM)
[11] = 5th '+' line (presumably 100 μM)

## Cc1cc(SCc2sc(-c3ccc(C(F)(F)F)cc3)nc2C)ccc1OCC(=O)O [GW501516]
[1]; 12 μg/head/day
  DA content per wet weight of striate body: 7.41 ± 1.27 ng/mg tissue
  DOPAC content per wet weight of striate body: 0.39 ± 0.06 ng/mg tissues
  HVA content per wet weight of striate body: 0.82 ± 0.08 ng/mg tissue
[1]; 120 μg/head/day
  DA content per wet weight of striate body: 8.98 ± 1.20 ng/mg tissue
  DOPAC content per wet weight of striate body: 0.44 ± 0.04 ng/mg tissues
  HVA content per wet weight of striate body: 0.90 ± 0.05 ng/mg tissue
[1]; any of the doses (12 or 120 μg/head/day)
  action of suppressing the decrease of the contents of DA, DOPAC and HVA (in words): greatly observed
[2]
  suppression of caspase-3/7 activity (in words): suppress the activity of caspase-3/7 in a concentration-dependent manner
[2]; compound 0.1 μM
  Caspase 3/7 activity: 847552 ± 36575 RFLU
[2]; compound 1 μM
  Caspase 3/7 activity: 621059 ± 26590 RFLU
[2]; compound 10 μM
  Caspase 3/7 activity: 798646 ± 54365 RFLU
[2]; compound 100 μM
  Caspase 3/7 activity: 398604 ± 55698 RFLU
[3]
  suppression of caspase-3/7 activity (in words): suppress the activity of caspase-3/7
[3]; compound 1 μM
  Caspase 3/7 activity: 237165 ± 5248 RFLU
[3]; compound 10 μM
  Caspase 3/7 activity: 125951 ± 6465 RFLU
[3]; compound 100 μM
  Caspase 3/7 activity: 421972 ± 21782 RFLU
[4]
  suppression of MPP+-induced cellular death (in words): suppress cellular death induced by MPP^+ in a concentration-dependent manner
[4]; compound 0.1 μM
  MTT assay A490: 0.3361 ± 0.0073
[4]; compound 1 μM
  MTT assay A490: 0.3926 ± 0.0090
[4]; compound 10 μM
  MTT assay A490: 0.3814 ± 0.0156
[4]; compound 100 μM
  MTT assay A490: 0.2990 ± 0.0144
[5]
  suppression of caspase-3/7 activity (in words): suppress the activity of caspase-3/7
[5]; compound 0.1 μM
  Caspase 3/7 activity: 586295 ± 18787 RFLU
[5]; compound 1 μM
  Caspase 3/7 activity: 463943 ± 12110 RFLU
[5]; compound 10 μM
  Caspase 3/7 activity: 420844 ± 13962 RFLU
[6]
  suppression of staurosporine-induced cellular death (in words): suppression of staurosporine-induced cellular death in a concentration-dependent manner
[6]; compound 0.1 μM
  MTT assay A490: 0.5179 ± 0.0140
[6]; compound 1 μM
  MTT assay A490: 0.5367 ± 0.0149
[6]; compound 10 μM
  MTT assay A490: 0.5860 ± 0.0086
[7]; [9]
  LDH release A490: 0.6225 ± 0.0229
[7]; 3rd '+' line (presumably 1 μM)
  LDH release A490: 0.5750 ± 0.0212
[7]; [10]
  LDH release A490: 0.3325 ± 0.0259
[7]; [11]
  LDH release A490: 0.6675 ± 0.0328
[8]; compound 0.1 μM
  LDH release A490: 0.3633 ± 0.0153
[8]; compound 1 μM
  LDH release A490: 0.3222 ± 0.0207
[8]; compound 10 μM
  LDH release A490: 0.2981 ± 0.0154
[8]; compound 100 μM
  LDH release A490: 0.7969 ± 0.0251
[8]
  cytotoxicity (in words): exerted cytotoxicity

## CCCc1c(OCCCOc2ccc(OCC(=O)O)cc2)ccc(C(C)=O)c1O [L-165041, 4-[3-[2-propyl-3-hydroxy-4-acetyl]phenoxy]propyloxyphenoxy acetic acid]
[1]; 12 μg/head/day
  Resumption ratio of content of DA: 0.42 ± 10.20%
  Resumption ratio of content of DOPAC: −1.45 ± 10.89%
  Resumption ratio of content of HVA: −4.65 ± 12.88%
  DA content per wet weight of striate body: 5.06 ± 1.08 ng/mg tissue
  DOPAC content per wet weight of striate body: 0.28 ± 0.05 ng/mg tissues
  HVA content per wet weight of striate body: 0.66 ± 0.08 ng/mg tissue
[1]; 120 μg/head/day
  Resumption ratio of content of DA: 26.42 ± 8.83 %
  Resumption ratio of content of DOPAC: 32.22 ± 15.41%
  Resumption ratio of content of HVA: 36.58 ± 16.68%
  DA content per wet weight of striate body: 7.81 ± 0.93 ng/mg tissue
  DOPAC content per wet weight of striate body: 0.44 ± 0.07 ng/mg tissues
  HVA content per wet weight of striate body: 0.91 ± 0.10 ng/mg tissue
[1]; dose of 12 μg/head/day
  action of suppressing the decrease of the contents of DA, DOPAC and HVA (in words): not so greatly observed
[1]; dose of 120 μg/head/day
  action of suppressing the decrease of the contents of DA, DOPAC and HVA (in words): greatly observed
[2]
  suppression of caspase-3/7 activity (in words): suppress the activity of caspase-3/7 in a concentration-dependent manner
[2]; compound 0.1 μM
  Caspase 3/7 activity: 1430206 ± 30804 RFLU
[2]; compound 1 μM
  Caspase 3/7 activity: 1168920 ± 30554 RFLU
[2]; compound 10 μM
  Caspase 3/7 activity: 646736 ± 26366 RFLU
[2]; compound 100 μM
  Caspase 3/7 activity: 572152 ± 33695 RFLU
[3]
  suppression of caspase-3/7 activity (in words): suppress the activity of caspase-3/7
[3]; compound 0.1 μM
  Caspase 3/7 activity: 732549 ± 24888 RFLU
[3]; compound 1 μM
  Caspase 3/7 activity: 652843 ± 8229 RFLU
[3]; compound 10 μM
  Caspase 3/7 activity: 554233 ± 23703 RFLU
[3]; compound 100 μM
  Caspase 3/7 activity: 242770 ± 5414 RFLU
[4]
  suppression of MPP+-induced cellular death (in words): suppress cellular death induced by MPP^+ in a concentration-dependent manner
[4]; compound 0.1 μM
  MTT assay A490: 0.3744 ± 0.0067
[4]; compound 1 μM
  MTT assay A490: 0.3935 ± 0.0083
[4]; compound 10 μM
  MTT assay A490: 0.4799 ± 0.0078
[4]; compound 100 μM
  MTT assay A490: 0.3181 ± 0.0122
[5]
  suppression of caspase-3/7 activity (in words): suppress the activity of caspase-3/7
[5]; compound 0.1 μM
  Caspase 3/7 activity: 535404 ± 23301 RFLU
[5]; compound 1 μM
  Caspase 3/7 activity: 520732 ± 17273 RFLU
[5]; compound 10 μM
  Caspase 3/7 activity: 483017 ± 27259 RFLU
[6]
  suppression of staurosporine-induced cellular death (in words): suppression of staurosporine-induced cellular death in a concentration-dependent manner
[6]; compound 0.1 μM
  MTT assay A490: 0.5523 ± 0.0209
[6]; compound 1 μM
  MTT assay A490: 0.5532 ± 0.0056
[6]; compound 10 μM
  MTT assay A490: 0.5167 ± 0.0098
[7]; [9]
  LDH release A490: 0.6758 ± 0.0183
[7]; 3rd '+' line (presumably 1 μM)
  LDH release A490: 0.6295 ± 0.0139
[7]; [10]
  LDH release A490: 0.6029 ± 0.0135
[7]; [11]
  LDH release A490: 0.2987 ± 0.0128
[8]; compound 0.1 μM
  LDH release A490: 0.3980 ± 0.0141
[8]; compound 1 μM
  LDH release A490: 0.3874 ± 0.0120
[8]; compound 10 μM
  LDH release A490: 0.3133 ± 0.0024
[8]; compound 100 μM
  LDH release A490: 0.6709 ± 0.0093
[8]
  cytotoxicity (in words): exerted cytotoxicity
